Test results published in patent publication US20150141248A1, “ANTIFUNGAL COMPOSITIONS” (DSM IP ASSETS B.V., priority 2011, published 2015).

What was measured:
Fusarium proliferatum [1] = assay: Treatment of wounded bananas inoculated with Fusarium proliferatum (mould growth); format: in vivo; conditions: for Number of moulded wounds/total number of 12 wounds: bananas 20° C.; for Observed antifungal activity O: bananas
Description: Four organic, unripe (green) bananas were used per treatment. The peel of each banana was wounded thrice using a cork borer according to the method described by de Lapeyre de Bellaire and Dubois (1987). Subsequently, each wound was inoculated with 15 μl of a Fusarium proliferatum suspension containing 1×10^5 of spores/ml. […] In addition, the antifungal compositions comprised 1.00% (w/w) methylhydroxyethylcellulose (MHEC), 0.40% (w/w) xanthan gum, 0.20% (w/w) anti-foaming agent, 0.30% (w/w) citric acid, 0.39% (w/w) lactic acid and 0.11% (w/w) potassium sorbate. The pH of the composition was 4.0. […] The treated, unripe bananas were incubated in a closed box in the dark at 20° C. and a relative air humidity of 95%, which was obtained in the presence of a saturated Na2HPO4 aqueous solution. During the first 20 days of incubation, a ripe (yellow) banana was included in the closed box to elevate the ethylene gas level and thus induce ripening of the treated, unripe bananas. […]
The expected antifungal activity (E in %) of the combined antifungal composition comprising both active ingredients was calculated according to the Colby equation (Colby, 1967): […]
wherein X and Y are the observed antifungal activities (in %) of the individual active ingredients X and Y, respectively. If the observed antifungal activity (O in %) of the combination exceeds the expected antifungal activity (E in %) of the combination and the synergy factor O/E is thus >1.0, the combined application of the active ingredients leads to a synergistic antifungal effect.

Botrytis cinerea = assay: In vitro antifungal activity, 96-well microtiter plates; format: cell-based; conditions: in vitro 25° C., 5 days
Description: The following compositions were tested: […] Subsequently, 100 μl of a Botrytis cinerea suspension prepared in PCB medium was used to inoculated each well with 2.5×10^3 spores/ml. […] The expected antifungal activity (E in %) of the active ingredient combination was calculated according to the Colby equation (Colby, 1967): […] wherein X and Y are the observed antifungal activities (in %) of the individual active ingredients X and Y, respectively.

Fusarium proliferatum [2] = assay: as above; format: cell-based; conditions: in vitro 25° C., 3 days
Description: Subsequently, 100 μl of a Botrytis cinerea suspension prepared in PCB medium was used to inoculated each well with 2.5×10^3 spores/ml.
, the in vitro antifungal activity (%) of the individual active ingredients was assessed by calculating the reduction in mould growth observed in the presence of the active ingredient in comparison to the mould growth observed in the absence of the active ingredient. The expected antifungal activity (E in %) of the active ingredient combination was calculated according to the Colby equation (Colby, 1967): […]
The experiment was conducted as described in Example 13, except for the fact that the following compositions were tested:
Furthermore, Fusarium proliferatum was used for inoculation. The antifungal activity (in %) of the individual and combined active ingredients was determined according to the method described in Example 13.

## CCCC1COC(Cn2cncn2)(c2ccc(Cl)cc2Cl)O1 (stereo not drawn) [Propiconazole, propiconazole]
Fusarium proliferatum [1]; 50 ppm natamycin, 250 ppm propiconazole or both, Day 29
  Number of moulded wounds/total number of 12 wounds: 5/12
Fusarium proliferatum [1]; 50 ppm natamycin, 250 ppm propiconazole or both, Day 29, listed as propiconazole
  Number of moulded wounds/total number of 12 wounds: 5
Fusarium proliferatum [1]; 50 ppm natamycin, 250 ppm propiconazole or both, Day 32
  Number of moulded wounds/total number of 12 wounds: 8/12
Fusarium proliferatum [1]; 50 ppm natamycin, 250 ppm propiconazole or both, Day 32, listed as propiconazole
  Number of moulded wounds/total number of 12 wounds: 8
Fusarium proliferatum [1]; 50 ppm natamycin, 250 ppm propiconazole or both, Day 34
  Number of moulded wounds/total number of 12 wounds: 10/12
Fusarium proliferatum [1]; 50 ppm natamycin, 250 ppm propiconazole or both, Day 34, listed as propiconazole
  Number of moulded wounds/total number of 12 wounds: 10
Fusarium proliferatum [1]; 50 ppm natamycin, 250 ppm propiconazole or both, Day 36
  Number of moulded wounds/total number of 12 wounds: 12/12
Fusarium proliferatum [1]; 50 ppm natamycin, 250 ppm propiconazole or both, Day 36, listed as propiconazole
  Number of moulded wounds/total number of 12 wounds: 12
Fusarium proliferatum [1]; 50 ppm natamycin, 250 ppm propiconazole or both, Day 39
  Number of moulded wounds/total number of 12 wounds: 12/12
Fusarium proliferatum [1]; 50 ppm natamycin, 250 ppm propiconazole or both, Day 39, listed as propiconazole
  Number of moulded wounds/total number of 12 wounds: 12
Fusarium proliferatum [1]; 50 ppm natamycin, 250 ppm propiconazole or both, Day 42
  Number of moulded wounds/total number of 12 wounds: 12/12
Fusarium proliferatum [1]; 50 ppm natamycin, 250 ppm propiconazole or both, Day 42, listed as propiconazole
  Number of moulded wounds/total number of 12 wounds: 12
Fusarium proliferatum [1]; 250 ppm natamycin, 500 ppm propiconazole or both, Day 34
  Number of moulded wounds/total number of 12 wounds: 10/12
Fusarium proliferatum [1]; 250 ppm natamycin, 500 ppm propiconazole or both, Day 34, listed as propiconazole
  Number of moulded wounds/total number of 12 wounds: 10
Fusarium proliferatum [1]; 250 ppm natamycin, 500 ppm propiconazole or both, Day 36
  Number of moulded wounds/total number of 12 wounds: 10/12
Fusarium proliferatum [1]; 250 ppm natamycin, 500 ppm propiconazole or both, Day 36, listed as propiconazole
  Number of moulded wounds/total number of 12 wounds: 10
Fusarium proliferatum [1]; 500 ppm natamycin, 150 ppm propiconazole or both, Day 26
  Number of moulded wounds/total number of 12 wounds: 9/12
Fusarium proliferatum [1]; 500 ppm natamycin, 150 ppm propiconazole or both, Day 26, listed as propiconazole
  Number of moulded wounds/total number of 12 wounds: 9
Fusarium proliferatum [1]; 500 ppm natamycin, 150 ppm propiconazole or both, Days 27-29
  Number of moulded wounds/total number of 12 wounds: 12/12
Fusarium proliferatum [1]; 500 ppm natamycin, 150 ppm propiconazole or both, Days 27-29, listed as propiconazole
  Number of moulded wounds/total number of 12 wounds: 12
Fusarium proliferatum [1]; 500 ppm natamycin, 150 ppm propiconazole or both, Days 31-32
  Number of moulded wounds/total number of 12 wounds: 12/12
Fusarium proliferatum [1]; 500 ppm natamycin, 150 ppm propiconazole or both, Days 31-32, listed as propiconazole
  Number of moulded wounds/total number of 12 wounds: 12
Fusarium proliferatum [1]; 500 ppm natamycin, 1000 ppm propiconazole or both, Day 39
  Number of moulded wounds/total number of 12 wounds: 4/12
Fusarium proliferatum [1]; 500 ppm natamycin, 1000 ppm propiconazole or both, Day 39, listed as propiconazole
  Number of moulded wounds/total number of 12 wounds: 4
Fusarium proliferatum [1]; 500 ppm natamycin, 1000 ppm propiconazole or both, Day 42
  Number of moulded wounds/total number of 12 wounds: 4/12
Fusarium proliferatum [1]; 500 ppm natamycin, 1000 ppm propiconazole or both, Day 42, listed as propiconazole
  Number of moulded wounds/total number of 12 wounds: 4
Fusarium proliferatum [1]; 50 ppm natamycin, 250 ppm propiconazole or both, 29 days
  Observed antifungal activity O: 92%
Fusarium proliferatum [1]; 50 ppm natamycin, 250 ppm propiconazole or both, 32 days
  Observed antifungal activity O: 90%
Fusarium proliferatum [1]; 50 ppm natamycin, 250 ppm propiconazole or both, 34 days
  Observed antifungal activity O: 85%
Fusarium proliferatum [1]; 50 ppm natamycin, 250 ppm propiconazole or both, 36 days
  Observed antifungal activity O: 81%
Fusarium proliferatum [1]; 50 ppm natamycin, 250 ppm propiconazole or both, 39 days
  Observed antifungal activity O: 57%
Fusarium proliferatum [1]; 50 ppm natamycin, 250 ppm propiconazole or both, 42 days
  Observed antifungal activity O: 47%
Fusarium proliferatum [1]; 250 ppm natamycin, 50 ppm propiconazole or both, 23 days
  Observed antifungal activity O: 36%
Fusarium proliferatum [1]; 250 ppm natamycin, 50 ppm propiconazole or both, 27 days
  Observed antifungal activity O: 30%
Fusarium proliferatum [1]; 250 ppm natamycin, 50 ppm propiconazole or both, 29 days
  Observed antifungal activity O: 35%
Fusarium proliferatum [1]; 250 ppm natamycin, 500 ppm propiconazole or both, 34 days
  Observed antifungal activity O: 74%
Fusarium proliferatum [1]; 250 ppm natamycin, 500 ppm propiconazole or both, 36 days
  Observed antifungal activity O: 62%
Fusarium proliferatum [1]; 250 ppm natamycin, 500 ppm propiconazole or both, 39 days
  Observed antifungal activity O: 43%
Fusarium proliferatum [1]; 250 ppm natamycin, 500 ppm propiconazole or both, 42 days
  Observed antifungal activity O: 33%
Fusarium proliferatum [1]; 500 ppm natamycin, 150 ppm propiconazole or both, 27 days
  Observed antifungal activity O: 57%
Fusarium proliferatum [1]; 500 ppm natamycin, 150 ppm propiconazole or both, 28 days
  Observed antifungal activity O: 56%
Fusarium proliferatum [1]; 500 ppm natamycin, 150 ppm propiconazole or both, 29 days
  Observed antifungal activity O: 54%
Fusarium proliferatum [1]; 500 ppm natamycin, 150 ppm propiconazole or both, 31 days
  Observed antifungal activity O: 44%
Fusarium proliferatum [1]; 500 ppm natamycin, 150 ppm propiconazole or both, 32 days
  Observed antifungal activity O: 33%
Botrytis cinerea; natamycin 0.63 ppm, propiconazole 1.00 ppm or both
  Observed antifungal activity O: 0%
Botrytis cinerea; natamycin 1.25 ppm, propiconazole 0.50 ppm, prothioconazole 0.13 ppm, or natamycin 1.25 ppm with either
  Observed antifungal activity O: 0%
Fusarium proliferatum [2]; natamycin 2.5 ppm, propiconazole 7.5 ppm or both
  Observed antifungal activity O: 0%
Fusarium proliferatum [2]; propiconazole 10.0 ppm alone or with natamycin 2.5 ppm
  Observed antifungal activity O: 0%
